In test [1] the target is T1, human B1R receptor (hB1R) (Homo sapiens, UniProt P46663).
T1 construct: host or cells: CHO K1 cells
T1 sequence (P46663 1-353): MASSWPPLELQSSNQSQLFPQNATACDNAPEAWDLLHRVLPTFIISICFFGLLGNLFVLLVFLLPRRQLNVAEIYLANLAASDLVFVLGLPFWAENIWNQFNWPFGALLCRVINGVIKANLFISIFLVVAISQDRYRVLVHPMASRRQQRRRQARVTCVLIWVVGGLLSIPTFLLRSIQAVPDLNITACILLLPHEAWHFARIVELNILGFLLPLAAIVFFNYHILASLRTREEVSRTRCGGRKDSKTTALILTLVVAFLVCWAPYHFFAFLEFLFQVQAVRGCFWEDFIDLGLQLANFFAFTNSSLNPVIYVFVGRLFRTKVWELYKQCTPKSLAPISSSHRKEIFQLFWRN
In words: FLIPR Ca2+ assay (Fluo-4) on CHO K1 cells stably transfected with the human B1R gene. It counts as cell-based. The settings on record: CHO-K1; test substance 10 μM; agonist Lys-Des-Arg9-bradykinin 0.5 nM; % inhibition compared to the maximum achievable inhibition. In outline:
(§1)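 CHO K1 cells stably expressing human or rat B1R, Fluo-4 loaded, read by FLIPR (Ex 488/Em 540, peak fluorescence). Compound at 10 μM gives % activation vs agonist. After 10 min, agonist added (human: Lys-Des-Arg9-bradykinin 0.5 nM; rat: Des-Arg9-bradykinin 100 nM); % inhibition relative to maximal achievable inhibition.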

Test [2] concerns the target T2, B1R receptor of rats (rB1R) (Rattus norvegicus, UniProt P97583).
T2 construct: host or cells: CHO K1 cells
T2 sequence (P97583 1-337): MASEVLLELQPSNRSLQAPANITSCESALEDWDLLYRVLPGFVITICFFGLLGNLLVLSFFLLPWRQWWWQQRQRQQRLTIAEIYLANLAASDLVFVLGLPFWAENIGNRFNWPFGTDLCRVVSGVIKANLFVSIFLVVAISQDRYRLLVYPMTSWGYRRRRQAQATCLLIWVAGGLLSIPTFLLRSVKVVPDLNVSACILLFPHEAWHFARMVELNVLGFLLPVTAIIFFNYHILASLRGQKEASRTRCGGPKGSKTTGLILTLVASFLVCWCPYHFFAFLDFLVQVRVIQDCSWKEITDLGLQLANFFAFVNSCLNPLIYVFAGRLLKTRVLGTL
In words: FLIPR Ca2+ assay (Fluo-4) on CHO K1 cells stably transfected with the B1R gene of rats. It is filed as cell-based. The settings on record: CHO-K1; test substance 10 μM; agonist Des-Arg9-bradykinin 100 nM; % inhibition compared to the maximum achievable inhibition. In a few lines:
as §1

The structures appear in SMILES notation.

By inhibition is commonly meant the drop in the measured response relative to a control, in per cent.

Turning to `O=C(CC1CCCCN1S(=O)(=O)c1cccc(C(F)(F)F)c1)N1CCn2cc(-c3ccncc3)nc2C1` (stereo not drawn) [(104), 1-(2-(Pyridin-4-yl)-5,6-dihydroimidazo[1,2-a]pyrazin-7(8H)-yl)-2-(1-(3-(trifluoromethyl)phenylsulfonyl)piperidin-2-yl)ethanone], the figures for the inhibition at 10 µM in test [1] and in test [2] were 43% and 49%, respectively.

For `COc1cc(C)c(S(=O)(=O)N2CCCCC2COCC(=O)N2CCn3c(CN(C)C)ccc3C2Cc2ccccc2)c(C)c1` (stereo not drawn) [(65), 1-(1-benzyl-6-((dimethylamino)methyl)-3,4-dihydropyrrolo[1,2-a]pyrazin-2(1H)-yl)-2-((1-(4-methoxy-2,6-dimethylphenylsulfonyl)piperidin-2-yl)methoxy)ethanone], the inhibition at 10 µM in test [1] worked out at 102%; in test [2] it was 100%.

As to `COc1cc(C)c(S(=O)(=O)N2CCCCC2COCC(=O)N2CCn3cccc3C2c2ccccc2)c(C)c1` (stereo not drawn) [(25), 2-((1-(4-methoxy-2,6-dimethylphenylsulfonyl)piperidin-2-yl)methoxy)-1-(1-phenyl-3,4-dihydropyrrolo[1,2-a]pyrazin-2(1H)-yl)ethanone], the inhibition at 10 µM in test [1] was found to be 99%; in test [2], 97%.

On to `CCC1c2ccc(C)n2CCN1C(=O)COCC1CCCCN1S(=O)(=O)c1c(C)cc(C)cc1C` (stereo not drawn) [(58), 1-(1-ethyl-6-methyl-3,4-dihydropyrrolo[1,2-a]pyrazin-2(1H)-yl)-2-((1-(mesitylsulfonyl)piperidin-2-yl)methoxy)ethanone], for which the inhibition at 10 µM in test [1] is 97%; in test [2], 103%.

With `COc1cc(C)c(S(=O)(=O)N2CCCCC2COCC(=O)N2CCn3c(CCCN4CCN(C)CC4)ccc3C2)c(C)c1` (stereo not drawn) [(14), 2-((1-(4-methoxy-2,6-dimethylphenylsulfonyl)piperidin-2-yl)methoxy)-1-(6-(3-(4-methylpiperazin-1-yl)propyl)-3,4-dihydropyrrolo[1,2-a]pyrazin-2(1H)-yl)ethanone], the inhibition at 10 µM in test [1] came out at 97%; in test [2], 99%.

On to `COc1cc(C)c(S(=O)(=O)N2CCCCC2CCCC(=O)N2CCn3c(CCc4ccncc4)ccc3C2)c(C)c1` (stereo not drawn) [(109), 4-(1-(4-Methoxy-2,6-dimethylphenylsulfonyl)piperidin-2-yl)-1-(6-(2-(pyridin-4-yl)ethyl)-3,4-dihydropyrrolo[1,2-a]pyrazin-2(1H)-yl)butan-1-one], for which the values for the inhibition at 10 µM in test [1] and in test [2] were 95% and 99%, respectively.

On to `COc1cc(C)c(S(=O)(=O)N2CCCCC2COCC(=O)N2CCn3cc(CN4CCCCC4)nc3C2)c(C)c1` (stereo not drawn) [(2), 2-((1-(4-methoxy-2,6-dimethylphenylsulfonyl)piperidin-2-yl)methoxy)-1-(2-(piperidin-1-ylmethyl)-5,6-dihydroimidazo[1,2-a]pyrazin-7(8H)-yl)ethanone], for which the inhibition at 10 µM is 105% in test [1] and 106% in test [2].

On to `COc1cc(C)c(S(=O)(=O)N2CCCCC2COCC(=O)N2CCn3cccc3C2CCc2ccccc2)c(C)c1` (stereo not drawn) [(60), 2-((1-(4-methoxy-2,6-dimethylphenylsulfonyl)piperidin-2-yl)methoxy)-1-(1-phenethyl-3,4-dihydropyrrolo[1,2-a]pyrazin-2(1H)-yl)ethanone], for which the inhibition at 10 µM was determined as 87% in test [1] and 102% in test [2].

`COc1cc(C)c(S(=O)(=O)N2CCCCC2COCC(=O)N2CCn3cnnc3C2)c(C)c1` (stereo not drawn) [(1), 1-(5,6-dihydro-[1,2,4]triazolo[4,3-a]pyrazin-7(8H)-yl)-2-((1-(4-methoxy-2,6-dimethylphenylsulfonyl)piperidin-2-yl)methoxy)ethanone]: the values for the inhibition at 10 µM in test [1] and in test [2] were 56% and 100%, respectively.

Consider `Cc1cc(C)c(S(=O)(=O)N2CCCCC2COCC(=O)N2CCn3cccc3C2c2ccccc2)c(C)c1` (stereo not drawn) [(39), 2-((1-(mesitylsulfonyl)piperidin-2-yl)methoxy)-1-(1-phenyl-3,4-dihydropyrrolo[1,2-a]pyrazin-2(1H)-yl)ethanone], for which the inhibition at 10 µM stood at 77% in test [1] and 99% in test [2].

With `COc1cc(C)c(S(=O)(=O)N2CCCCC2COCC(=O)N2CCn3c(ccc3-c3cccnc3)C2)c(C)c1` (stereo not drawn) [(89), 2-((1-(4-Methoxy-2,6-dimethylphenylsulfonyl)piperidin-2-yl)methoxy)-1-(6-(pyridin-3-yl)-3,4-dihydropyrrolo[1,2-a]pyrazin-2(1H)-yl)ethanone], the inhibition at 10 µM in test [1] turned out to be 99%; in test [2], 96%.

For `Cc1cc(C)c(S(=O)(=O)N2CCCCC2COCC(=O)N2CCn3cccc3C2c2ccc(C)c(C)c2)c(C)c1` (stereo not drawn) [(41), 1-(1-(3,4-dimethylphenyl)-3,4-dihydropyrrolo[1,2-a]pyrazin-2(1H)-yl)-2-((1-(mesitylsulfonyl)piperidin-2-yl)methoxy)ethanone], the inhibition at 10 µM in test [1] amounted to 35%; in test [2], 98%.

With `COc1cc(C)c(S(=O)(=O)N2CCCCC2COCC(=O)N2CCn3cccc3C2C(C)C)c(C)c1` (stereo not drawn) [(72), 1-(1-isopropyl-3,4-dihydropyrrolo[1,2-a]pyrazin-2(1H)-yl)-2-((1-(4-methoxy-2,6-dimethylphenylsulfonyl)piperidin-2-yl)methoxy)ethanone], the inhibition at 10 µM in test [1] and in test [2] was 102% throughout.

Take `Cc1cc(C)c(S(=O)(=O)N2CCCCC2COCC(=O)N2CCn3ccnc3C2)c(C)c1` (stereo not drawn) [(37), 1-(5,6-dihydroimidazo[1,2-a]pyrazin-7(8H)-yl)-2-((1-(mesitylsulfonyl)piperidin-2-yl)methoxy)ethanone]: the inhibition at 10 µM in test [1] was 18%; in test [2], 91%.

Take `COc1cc(C)c(S(=O)(=O)N2CCCCC2COCC(=O)N2CCn3cccc3C2c2ccc(Cl)nc2)c(C)c1` (stereo not drawn) [(22), 1-(1-(6-chloropyridin-3-yl)-3,4-dihydropyrrolo[1,2-a]pyrazin-2(1H)-yl)-2-((1-(4-methoxy-2,6-dimethylphenylsulfonyl)piperidin-2-yl)methoxy)ethanone]: the inhibition at 10 µM came out at 102% in test [1] and 99% in test [2].

On to `Cc1cc(C)c(S(=O)(=O)N2CCCCC2COCC(=O)N2CCn3c(CN(C)C)ccc3C2c2cccs2)c(C)c1` (stereo not drawn) [(53), 1-(6-((dimethylamino)methyl)-1-(thiophen-2-yl)-3,4-dihydropyrrolo[1,2-a]pyrazin-2(1H)-yl)-2-((1-(mesitylsulfonyl)piperidin-2-yl)methoxy)ethanone], for which the inhibition at 10 µM in test [1] was found to be 92%; in test [2], 102%.

Consider `COc1cc(C)c(S(=O)(=O)N2CCCCC2COCC(=O)N2CCn3c(CN(C)C)ccc3C2CCc2ccccc2)c(C)c1` (stereo not drawn) [(66), 1-(6-((dimethylamino)methyl)-1-phenethyl-3,4-dihydropyrrolo[1,2-a]pyrazin-2(1H)-yl)-2-((1-(4-methoxy-2,6-dimethylphenylsulfonyl)piperidin-2-yl)methoxy)ethanone], for which the inhibition at 10 µM in test [1] is 102%; in test [2] it was 101%.

`CCCCC1c2ccc(CN(C)C)n2CCN1C(=O)COCC1CCCCN1S(=O)(=O)c1c(C)cc(C)cc1C` (stereo not drawn) [(52), 1-(1-butyl-6-((dimethylamino)methyl)-3,4-dihydropyrrolo[1,2-a]pyrazin-2(1H)-yl)-2-((1-(mesitylsulfonyl)piperidin-2-yl)methoxy)ethanone]: the inhibition at 10 µM in test [1] came out at 103%; in test [2], 100%.

For the origin of these results see US8178535B2, “Substituted sulfonamide compounds having bradykinin 1 receptor activity and use thereof as medicaments” (Gruenenthal GmbH, priority 2008, dated 2012).
